Assay results taken from ChEMBL document CHEMBL1133037, “The design, synthesis and physical chemical properties of novel human vasopressin V2-receptor antagonists optimized for parenteral delivery” (Bioorg Med Chem Lett, 2000).
pIC50: −log10 of the molar value. ≈ marks a conversion by molar mass, not a printed value. Calls of active or inactive are those of the source. The rule behind the calls is not given here.

Columns and labels:
[1] = Compound was tested for solubility in a model parenteral system consisting of 30% poltethylene glycol 200 (PEG-200)/water; format: ADME; settings: read-out: S
Rattus norvegicus [2] = assay: Ratio of rat urine volume collected from treatment group (10 mg/kg perorally) after 4 hours versus control group was determined; format: functional
Vasopressin V2 receptor = Vasopressin V2 receptor (Homo sapiens, UniProt P30518); assay: Displacement of [3H]AVP from human vasopressin V2-receptor expressed in murine fibroblast cell (LV2) membranes; format: cell-based
Sequence of Vasopressin V2 receptor (P30518 whole entry): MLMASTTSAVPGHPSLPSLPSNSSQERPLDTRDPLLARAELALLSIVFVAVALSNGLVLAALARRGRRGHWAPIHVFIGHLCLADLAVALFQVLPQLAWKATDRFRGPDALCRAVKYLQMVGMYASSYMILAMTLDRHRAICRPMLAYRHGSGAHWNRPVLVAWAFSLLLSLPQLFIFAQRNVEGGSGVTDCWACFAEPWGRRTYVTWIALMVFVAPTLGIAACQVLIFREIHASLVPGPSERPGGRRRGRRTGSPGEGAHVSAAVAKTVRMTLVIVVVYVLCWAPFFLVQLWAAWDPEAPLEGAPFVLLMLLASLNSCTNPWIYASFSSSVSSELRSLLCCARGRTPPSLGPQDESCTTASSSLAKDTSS

[3] = Compound was tested for solubility in a model parenteral system consisting of 30% poltethylene glycol 200 (PEG-200)/water (*, mixture of amophorus and crystalline material); format: ADME; settings: read-out: S
Rattus norvegicus [4] = assay: Ratio of urine volume collected from treatment group (10 mg/kg perorally) after 4 hours versus control group was determined; No effect; format: functional, organism-based
Rattus norvegicus [5] = assay: Ratio of rat urine volume collected from treatment group (3 mg/kg perorally) after 4 hours versus control group was determined; format: functional
Rattus norvegicus [6] = assay: Ratio of rat urine volume collected from treatment group (1 mg/kg perorally) after 4 hours versus control group was determined; format: functional

Row | SMILES | pIC50 (Vasopressin V2 receptor) | Ratio (Rattus norvegicus [2]) | other results
1 | Cc1ccc(F)cc1C(=O)Nc1ccc(C(=O)N2Cc3ccc(C(=O)O)n3Cc3ccccc32)c(Cl)c1 |  |  | Ratio (Rattus norvegicus [4]): inactive
2 | CN(C)C1CCN(C(=O)c2ccc3n2Cc2ccccc2N(C(=O)c2ccc(NC(=O)c4ccccc4-c4ccccc4)cc2Cl)C3)CC1 | 8.06 |  | 
3 | Cc1ccc(F)cc1C(=O)Nc1ccc(C(=O)N2Cc3cccn3Cc3ccccc32)c(Cl)c1 [LIXIVAPTAN] |  | 7.4 | 
4 | CN1CCN(C(=O)c2ccc3n2Cc2ccccc2N(C(=O)c2ccc(NC(=O)c4ccccc4-c4ccccc4)cc2Cl)C3)CC1.O=C(O)CC(O)(CC(=O)O)C(=O)O |  |  | solubility [1]: 1700 µg/mL
5 | Cc1ccc(F)cc1C(=O)Nc1ccc(C(=O)N2Cc3ccc(CN(C)C)n3Cc3ccccc32)c(Cl)c1 |  |  | Ratio (Rattus norvegicus [5]): 1.4; Ratio (Rattus norvegicus [6]): 1.4
6 | CN1CCN(C2CCN(C(=O)c3ccc4n3Cc3ccccc3N(C(=O)c3ccc(NC(=O)c5ccccc5-c5ccccc5)cc3Cl)C4)CC2)CC1.Cl |  | 2.7 | 

More lines, main results first:

Row | pIC50 (Vasopressin V2 receptor) | SMILES | Ratio (Rattus norvegicus [2]) | other results
7 | 8.28 | COc1cc(C(=O)N2Cc3ccc(CN(C)C)n3Cc3ccccc32)ccc1NC(=O)c1ccccc1-c1ccccc1 | 5 | solubility [1]: 2200 µg/mL (≈ 3850 µM)
8 | 8.68 | O=C(Nc1ccc(C(=O)N2Cc3ccc(CN4CCC(N5CCCCC5)CC4)n3Cc3ccccc32)c(Cl)c1)c1ccccc1-c1ccccc1 | 1.5 | 
9 | 7.83 | CN(C)Cc1ccc2n1Cc1ccccc1N(C(=O)c1ccc(NC(=O)c3ccccc3-c3ccccc3)cc1O)C2 | 3.8 | solubility [3]: 1900 µg/mL (≈ 3410 µM)
10 | 8.15 | COc1cc(NC(=O)c2ccccc2-c2ccccc2)ccc1C(=O)N1Cc2ccc(CN3CCN(C)CC3)n2Cc2ccccc21 | 7.8 | solubility [1]: 300 µg/mL (≈ 479 µM)
11 | 8.12 | CN(C)Cc1ccc2n1Cc1ccccc1N(C(=O)c1ccc(NC(=O)c3ccccc3-c3ccccc3)cc1Cl)C2 | 6.6 | Ratio (Rattus norvegicus [5]): 5.6; Ratio (Rattus norvegicus [6]): 2.3; solubility [3]: 720 µg/mL (≈ 1250 µM)
12 | 8.59 | CN(C)CCN(C)Cc1ccc2n1Cc1ccccc1N(C(=O)c1ccc(NC(=O)c3ccccc3-c3ccccc3)cc1Cl)C2 | 4.2 | 
13 | 8.70 | CN(C)C1CCN(Cc2ccc3n2Cc2ccccc2N(C(=O)c2ccc(NC(=O)c4ccccc4-c4ccccc4)cc2Cl)C3)CC1 | 2.3 | 
14 | 8.89 | CN1CCN(Cc2ccc3n2Cc2ccccc2N(C(=O)c2ccc(NC(=O)c4ccccc4-c4ccccc4)cc2Cl)C3)CC1 | 3.75 | 
